Tests used:
[1] = cytotoxicity assay (percent viability of HEp-2 cells, Cell Titer-Glo); conditions: human, HEp-2 cells
RSV, Long strain = assay: virus titer Reduction (VTR) assay, progeny virus TCID50 in HEp-2 cells; assay type: cell-based, respiratory syncytial virus (RSV); conditions: human respiratory syncytial virus, 48 h; for log reduction at 5 µg/mL: 5 ug/ml compound, read-out: TCID-50 Reduction @ 5 ug/ml; for log reduction at 12 µg/mL: 12 ug/ml compound, read-out: TCID-50 Reduction 12 @ ug/ml; for log reduction at 25 µg/mL: 25 ug/ml compound, read-out: TCID-50 Reduction 25 @ ug/ml; for log reduction at 50 µg/mL: 50 ug/ml compound, read-out: TCID-50 Reduction @ 50 ug/ml; for log reduction at 3 µg/mL: 3 ug/ml compound, read-out: TCID-50 Reduction @ 3 ug/ml; for log reduction at 6 µg/mL: 6 ug/ml compound, read-out: TCID-50 Reduction 6 @ ug/ml
Procedure: Four concentrations of each compound were evaluated (Table 3). Briefly, the four concentrations of test compounds, HEp-2 cells (8×10^3 per well) and RSV, Long strain (MOI=0.9) were plated in 96 well microtiter plates. The plates were incubated for 48 hours. Fifteen (15) μl of 10-fold serial dilution of progeny virus containing medium from respective samples (test compound treated or untreated) was transferred to infect fresh HEp-2 cells (2×10^3 cells per well) in a 384 well format. Plates were incubated for an additional 6 days and luminescence was measured using Cell Titer-Glo reagent (Promega Inc.) to determine cell viability. […] A well showing lesser than 50% cell viability was regarded as positive for virus infection. Four replicates for each virus dilution were analyzed and the number of virus positive wells (out of 4) was plotted versus the dilution. TCID50 was calculated to be the dilution that produced two positive wells out of four using ActivityBase software (IDBS, Inc, Guilford, UK).

[2] = system: respiratory syncytial virus (RSV) strain Long; assay: microbe, parasite or virus in culture; conditions: human respiratory syncytial virus, HEp-2, 144 h
Procedure: The assay measures RSV virus-induced CPE in HEp-2 cells using cell viability as the end point.
Two vials of RSV (strain Long) containing 1×10^7 pfu/mL was thawed using an Eppendorf thermomixer for 13 min at 15° C., with shaking at 350 rpm. […] The cells were incubated for 18-20 h at 37° C., 5% CO2, 90% relative humidity. The medium was aspirated and the cells washed with 10 mL PBS without Mg^2+ or Ca^2+. Cells were harvested from flasks using 0.25% trypsin-EDTA. The cells were resuspended in a freezing medium of 95% fetal calf serum and 5% DMSO to a final cell density of 2×10^6 cells/mL. One mL aliquots of this virus infected cell suspension were dispensed to cryovials and cells were rate frozen to −80° C. Frozen infected cells were then transferred to −150° C. for long term storage.
Test compounds were evaluated by measuring their antiviral activity, cell toxicity, and selectivity. Test compounds were serially diluted in a plate to plate matrix or “stacked plate” matrix. All 320 compounds in a source plate were diluted together resulting in a 10 point dose response dilution series. It was visualized as a serial dilution series proceeding vertically through a stack of plates with the high dose plate on top and the low dose plate on the bottom.
Cells were harvested and resuspended to 80,000 cells per ml in Complete DMEM/F12.
Cells were thawed in a room temperature water bath with gentle agitation. The tube was inverted 5-10. Cells were diluted to 80,000 cells per ml by adding the contents of the vial to 24 ml of cold (4° C.) media.
Twenty five ul of uninfected HEp-2 cells were plated in the cell control wells. Frozen infected cells were combined with uninfected HEp-2 cells at a 1:100 ratio. Twenty five ul of the cell mixture was added to the virus control and compound wells. All cell plating was conducted using a Matrix WellMate and cells were maintained at room temperature with stirring during the plating process. The assay plates were incubated for six days at 37° C., 5% CO2 and 90% relative humidity.
Following the six day incubation period, the assay plates were equilibrated to room temperature for 30 min and an equal volume (30 μL) of Cell Titer-Glo reagent (Promega Inc.) was added to each well using a WellMate (Matrix, Hudson, N.H.) and plates were incubated for an additional 10 min at room temperature. At the end of the incubation, luminescence was measured using a Perkin Elmer Envision™ multi-label reader (PerkinElmer, Wellesley, Mass.) with an integration time of 0.1 s.
Data was analyzed using ActivityBase software (IDBS, Inc, Guilford, UK). thirty two control wells containing cells only and twenty four wells containing cells and virus were included on each assay plate and used to calculate Z′ value for each plate and to normalize the data on a per plate basis. […] Eight ribavirin positive control wells were included on each plate for quality control purposes, but were not used in Z′ calculations. […] In the toxicity assay, results are described as percent viability and the calculation is the same.
An EC50 (for CPE inhibition) and IC50 (for cell viability) were calculated for each substance using the 4 parameter Levenburg-Marquardt algorithm with parameter A locked at 0 and parameter B locked at 100. Standard deviation, normalized chi2 and hill slope were used to evaluate the curves. Values were not extrapolated beyond the tested range of concentrations.

CC1(C)O[C@@H]2[C@H](O1)[C@@H](CO)O[C@H]2n1ncc(=O)[nH]c1=O [AB00174524]
CC50 at 6 days [1]: > 50 µM
log reduction at 5 µg/mL (RSV, Long strain): 4.58
log reduction at 12 µg/mL (RSV, Long strain): 5.98
log reduction at 25 µg/mL (RSV, Long strain): 5.56
log reduction at 50 µg/mL (RSV, Long strain): 5.87
EC50 [2]: 3.25 µM

CCCSC1=C(C#N)C(c2ccco2)C(C(=O)Nc2ccccc2)=C(C)N1 (stereo not drawn) [AB00276073]
CC50 at 6 days [1]: > 25 µg/mL
log reduction at 3 µg/mL (RSV, Long strain): 1
log reduction at 6 µg/mL (RSV, Long strain): 0.63
log reduction at 12 µg/mL (RSV, Long strain): 1.39
log reduction at 25 µg/mL (RSV, Long strain): 3.57
EC50 [2]: 5.12 µg/mL

CC1=Nc2ccc(C)c3nc(C)cc(c23)N1c1ccc(C)cc1 [AB00280244]
CC50 at 6 days [1]: > 25 µg/mL
log reduction at 3 µg/mL (RSV, Long strain): 1.55
log reduction at 6 µg/mL (RSV, Long strain): 1.36
log reduction at 12 µg/mL (RSV, Long strain): 1.55
log reduction at 25 µg/mL (RSV, Long strain): 2.89
EC50 [2]: 8.62 µg/mL

O=C(Nc1ccc(Nc2ccccc2)cc1)c1ccccc1Cl [AB00280499]
CC50 at 6 days [1]: > 25 µg/mL
log reduction at 3 µg/mL (RSV, Long strain): 2.55
log reduction at 6 µg/mL (RSV, Long strain): 2.38
log reduction at 12 µg/mL (RSV, Long strain): 3.69
log reduction at 25 µg/mL (RSV, Long strain): 2.96
EC50 [2]: 6.6 µg/mL

CCOC(=O)Cc1nnc(Nc2ccc(C)cc2)c2ccccc12 [AB00285095]
CC50 at 6 days [1]: > 25 µg/mL
log reduction at 3 µg/mL (RSV, Long strain): 1
log reduction at 6 µg/mL (RSV, Long strain): 1.32
log reduction at 12 µg/mL (RSV, Long strain): 1.99
log reduction at 25 µg/mL (RSV, Long strain): 2.56
EC50 [2]: 9.72 µg/mL

O=C(CCSc1ccccc1)Nc1ccccc1C(=O)O [AB00289457]
CC50 at 6 days [1]: > 25 µg/mL
log reduction at 3 µg/mL (RSV, Long strain): 1
log reduction at 6 µg/mL (RSV, Long strain): 4.9
log reduction at 12 µg/mL (RSV, Long strain): 6.73
log reduction at 25 µg/mL (RSV, Long strain): 6.57
EC50 [2]: 2.97 µg/mL

Cc1cccc(N2C(=O)CC(Cc3ccc(Cl)cc3)C2=O)c1Cl (stereo not drawn) [AB00292352]
CC50 at 6 days [1]: > 25 µg/mL
log reduction at 3 µg/mL (RSV, Long strain): 1.22
log reduction at 5 µg/mL (RSV, Long strain): 2.31
log reduction at 12 µg/mL (RSV, Long strain): 3.82
log reduction at 25 µg/mL (RSV, Long strain): 5.9
EC50 [2]: 8.56 µg/mL

COc1ccc(C(=O)Nc2ccc3c(c2)OCCO3)c(OC)c1 [AB00296320]
CC50 at 6 days [1]: > 25 µg/mL
log reduction at 3 µg/mL (RSV, Long strain): 1.55
log reduction at 6 µg/mL (RSV, Long strain): 1.38
log reduction at 12 µg/mL (RSV, Long strain): 2.9
log reduction at 25 µg/mL (RSV, Long strain): 4.66
EC50 [2]: 8.34 µg/mL

CCCn1c(COc2ccccc2OC)nc2ccccc21 [AB00296415]
CC50 at 6 days [1]: > 25 µg/mL
log reduction at 3 µg/mL (RSV, Long strain): 1.74
log reduction at 5 µg/mL (RSV, Long strain): 2.48
log reduction at 12 µg/mL (RSV, Long strain): 2.59
log reduction at 25 µg/mL (RSV, Long strain): 5.9
EC50 [2]: 4.88 µg/mL

CCCn1cnc2sc(-c3ccccc3)cc2c1=O [AB00298501]
CC50 at 6 days [1]: > 25 µg/mL
log reduction at 3 µg/mL (RSV, Long strain): 1.82
log reduction at 6 µg/mL (RSV, Long strain): 2.38
log reduction at 12 µg/mL (RSV, Long strain): 2.9
log reduction at 25 µg/mL (RSV, Long strain): 3.78
EC50 [2]: 3.14 µg/mL

O=C(Nc1ccccc1)N1CCc2cc([N+](=O)[O-])ccc21 [AB00705281]
log reduction at 5 µg/mL (RSV, Long strain): 4.75
log reduction at 12 µg/mL (RSV, Long strain): 4.2
log reduction at 25 µg/mL (RSV, Long strain): 5.56
log reduction at 50 µg/mL (RSV, Long strain): 5.9

C=CC/N=c1\scc(-c2ccc(C)cc2)n1/N=C/c1ccccn1 [AB00718339]
CC50 at 6 days [1]: > 50 µM
EC50 [2]: 1.14 µM

CCOC(=O)c1ccccc1NC(=O)c1cc(S(=O)(=O)N(CC)c2ccccc2)ccc1Cl [AB00718457]
CC50 at 6 days [1]: > 50 µM
EC50 [2]: 23.8 µM

Cc1ccc(O)c(C(=O)c2cc(C(=O)Nc3ccccc3C)c(=O)n(-c3ccccc3C)c2)c1 [AB00719359]
CC50 at 6 days [1]: > 50 µM
EC50 [2]: 29.8 µM

Cc1ccc(-c2csc(NC(=O)COC(=O)c3cccc(Cl)c3)n2)cc1C [AB00720414]
CC50 at 6 days [1]: > 50 µM
EC50 [2]: 49.1 µM

CC(C)(C)C1CCc2nc3ccccc3c(C(=O)OCC(=O)Nc3ccc(C#N)cc3)c2C1 (stereo not drawn) [AB00721928]
CC50 at 6 days [1]: > 50 µM
EC50 [2]: 41.9 µM

C/C(N)=C(/C#N)C(=O)COC(=O)c1ccccc1SCC(=O)NC1CCCCCCC1 [AB00723775]
CC50 at 6 days [1]: > 50 µM
EC50 [2]: 23.4 µM

C/C(N)=C(/C#N)C(=O)CSc1nnc2c(Cl)cc(C(F)(F)F)cn12 [AB00724801]
CC50 at 6 days [1]: > 50 µM
EC50 [2]: 16.2 µM

O=C(COC(=O)c1c2c(nc3ccccc13)/C(=C/c1cccs1)CC2)NCC(F)(F)F [AB00725240]
CC50 at 6 days [1]: > 50 µM
EC50 [2]: 43.3 µM

CCOc1ccccc1/C=C(\C#N)c1nc2sc3c(c2c(=O)[nH]1)CCCC3 [AB00726710]
CC50 at 6 days [1]: > 50 µM
EC50 [2]: 30.9 µM

CCc1ccc(Nc2nnc(SCC(=O)Nc3cc(OC)c([N+](=O)[O-])cc3C)s2)cc1 [AB00728303]
CC50 at 6 days [1]: > 50 µM
EC50 [2]: 28.3 µM

C/C(N)=C(/C#N)C(=O)CSc1nc2sc3c(c2c(=O)n1-c1ccccc1C(F)(F)F)CCCCC3 [AB00728757]
CC50 at 6 days [1]: > 50 µM
EC50 [2]: 18.1 µM

COCCn1c(SCC(=O)NC2CCCc3ccccc32)nnc1-c1cccc(C)c1 (stereo not drawn) [AB00728760]
CC50 at 6 days [1]: > 50 µM
EC50 [2]: 37.9 µM

O=C(CCNC(=O)c1ccc(Br)cc1)NC1CCCc2ccccc21 (stereo not drawn) [AB00739576]
CC50 at 6 days [1]: > 50 µM
EC50 [2]: 24.7 µM

CCN(c1ccccc1)S(=O)(=O)c1cccc(C(=O)Nc2nccs2)c1 [AB00739796]
CC50 at 6 days [1]: > 50 µM
EC50 [2]: 22.2 µM

C=CCn1c(SC(C)C(=O)Nc2cc(C(F)(F)F)ccc2Cl)nnc1-c1ccccc1OC (stereo not drawn) [AB00741842]
CC50 at 6 days [1]: > 50 µM
EC50 [2]: 26.7 µM

COc1ccc(-c2nc(CSc3nnc(C4CC4)n3C3CC3)cs2)cc1 [AB00747970]
CC50 at 6 days [1]: > 50 µM
EC50 [2]: 10.8 µM

Cc1cccc(NC(=O)COC(=O)c2ccc(F)cc2N)c1C [AB00756405]
CC50 at 6 days [1]: > 50 µM
EC50 [2]: 11.5 µM

O=C(c1cccc(OC(F)F)c1)N1CCc2cc([N+](=O)[O-])ccc21 [AB00764110]
CC50 at 6 days [1]: > 50 µM
EC50 [2]: 41.5 µM

CC(=O)Nc1cc(C(=O)CSc2nc3ccccc3n2C)ccc1O [AB00766545]
CC50 at 6 days [1]: > 50 µM
EC50 [2]: 26.2 µM

COc1cccc(Nc2nnc(SCC(=O)/C(C#N)=C(\C)N)s2)c1 [AB00767910]
CC50 at 6 days [1]: > 50 µM
EC50 [2]: 6.07 µM

O=C(COc1ccc(Cl)c(Cl)c1)Nc1cccc(C(=O)NC2CC2)c1 [AB00784993]
CC50 at 6 days [1]: > 50 µM
EC50 [2]: 12 µM

Cc1noc(C)c1S(=O)(=O)N1CCN(Cc2ccccc2C#N)CC1 [AB00785032]
CC50 at 6 days [1]: > 50 µM
EC50 [2]: 46.5 µM

Cc1ccc(-c2csc3ncn(Cc4cc(=O)oc5cc(Br)ccc45)c(=O)c23)cc1 [AB00785889]
CC50 at 6 days [1]: > 50 µM
EC50 [2]: 23.4 µM

Cc1ccc2c(Cn3cnc4scc(-c5ccc(Br)cc5)c4c3=O)cc(=O)oc2c1 [AB00796961]
CC50 at 6 days [1]: > 50 µM
EC50 [2]: 31.9 µM

Cc1ccc2c(Cn3cnc4scc(-c5ccc(F)cc5)c4c3=O)cc(=O)oc2c1 [AB00796970]
CC50 at 6 days [1]: > 50 µM
EC50 [2]: 10.6 µM

COc1cc(SC)ccc1C(=O)Nc1ccc(C(=O)NC2CC2)cc1 [AB00797753]
CC50 at 6 days [1]: > 50 µM
EC50 [2]: 29.9 µM

CC(=O)Nc1ccc(S(=O)(=O)N(C)CC(=O)Nc2ccccc2Oc2ccccc2)cc1 [AB00798716]
CC50 at 6 days [1]: > 50 µM
EC50 [2]: 49.8 µM

NCc1cn2ccccc2n1 [AB00877180]
CC50 at 6 days [1]: > 50 µM
EC50 [2]: 15.1 µM

Clc1ccccc1OCc1noc(-c2cccs2)n1 [AB00877365]
CC50 at 6 days [1]: > 50 µM
EC50 [2]: 38.8 µM

O=C(CCc1ccccc1)Nc1sc2c(c1C(=O)O)CCC2 [AB00877405]
CC50 at 6 days [1]: > 50 µM
EC50 [2]: 27.8 µM

CNc1ncnc2c1ncn2[C@@H]1C[C@H](CO)[C@H](O)[C@@H]1O [SRI-4711]
CC50 at 6 days [1]: > 50 µM
EC50 [2]: 24.5 µM

Reference: patent US20130085133A1, “ANTI-VIRAL TREATMENT AND ASSAY TO SCREENFOR ANTI-VIRAL AGENT” (Sourthern Research Institute Office of Commercialization …, priority 2010, published 2013)
